Legend:
[1] = test system: NDY5 yeast containing an empty yEP181 vector; experiment: Hygromycin B-based in vivo viability (growth) assay; assay type: cell-based, Saccharomyces cerevisiae
Procedure: The yeast was grown in minimal media to select for the plasmids, and the expression of the nanobody was induced with galactose. After overnight galactose induction, the yeast culture was diluted, and growth was monitored over 30 h.
An overnight culture was grown in minus -Leu-Ura medium containing 2% glucose and then diluted 1:10 into medium containing 2% lactate. After 9 h of growth, 2% galactose was added, and the cultures were left overnight. […] The cultures were grown at 30 °C with shaking, and growth was monitored over the next 30 h by measuring the OD.

[2] = test system: Vrg4 liposomes; assay type: biochemical; settings: liposome assays, GDP-mannose versus GMP as antiport substrate

Compound	Growth / sensitivity to hygromycin B, in words [1]	Transport rate as antiport substrate, in words [2]
CN[C@H]1C[C@@H](N)[C@H](O)[C@@H](O[C@@H]2O[C@H](CO)[C@H](O)[C@@H]3OC4(O[C@H]23)O[C@H]([C@@H](N)CO)[C@H](O)[C@H](O)[C@H]4O)[C@@H]1O (some centres unmarked) [hygromycin B]	sensitive	
Nc1nc2c(ncn2[C@@H]2O[C@H](COP(=O)(O)OP(=O)(O)O[C@H]3O[C@H](CO)[C@@H](O)[C@H](O)[C@@H]3O)[C@@H](O)[C@H]2O)c(=O)[nH]1 [GDP-mannose]		faster transport rates and greater overall uptake
